# Measurements from patent publication US20220389058A1, “PEPTIDES AND COMPOSITIONS FOR USE IN COSMETICS AND MEDICINE” (LIPOTRUE, S.L., priority 2019, published 2022).
# Test system: IL33
# Assay: IL33 expression modulation by RT-qPCR in HEKa cells (Example 7)
# Type: cell-based, Human
# Conditions: 0.01 mg/mL, 24 hours
# Method: A stock solution of the peptide was prepared in water at 1 mg/mL. Working solution was freshly prepared at the specified concentration from stock solution in the corresponding supplemented medium.
# RNA (ribonucleic acid) extraction and RT-qPCR (reverse transcription quantitative polymerase chain reaction) were performed. Briefly, HDFa and HEKa cells were seeded in duplicate (n=2) in 6-well plates at a density of 4×10^5 cells/well and maintained at standard culture conditions (106 Medium supplemented with 1% (v/v) LSGS for HDFa cells; Medium Epilife supplemented with 1% (v/v) EDGS and 1% (v/v) penicillin/streptomycin for HEKa cells; 37° C., 95% room humidity, 5% CO2) for 24 hours. Then, cells were treated with peptide Ac-SEQ ID NO: 1-NH2, Ac-SEQ ID NO: 2-NH2 or Ac-SEQ ID NO: 3-NH2 at the concentration of 0.01 mg/mL for 24 hours. Untreated cells were used as basal or negative control.
# Cells were finally lysed, and replicates were pooled together for RNA extraction using Qiagen RNeasy Mini kit following manufacturer's instructions. Purified RNAs were used to generate the corresponding cDNAs (complementary deoxyribonucleic acids) by reverse transcription using a commercial kit High capacity cDNA reverse transcription kit (Applied Biosystems) which served as templates for amplification. RT-qPCR was performed with the appropriate TaqMan assay probes for IL33 (plus GAPDH—Glyceraldehyde 3-phosphate dehydrogenase—that was used as housekeeping gene) and 2×gene expression Master Mix using StepOne plus Real-Time PCR instrument. […] (Annealing and extension) (Arya, M., Shergill, I. S., Williamson, M., Gommersall, L., Arya, N., Patel, H. R. (2005) Basic principles of real-time quantitative PCR. Expert Rev. Mol. Diagn.; 5(2):209-19; and Jozefczuk, J. and Adjaye, J. (2011) Quantitative real-time PCR-based analysis of gene expression. Methods Enzymol. 500; 99-109).
# The obtained data was analysed using the ΔΔCt method, which provides the target gene expression values as fold changes in the treated sample compared with an untreated basal sample. […]
substance,measurement,value
Ac-Arg-Arg-Gln-Met-Arg-Glu-NH2 (Ac-RRQMRE-NH2) [Ac-SEQ ID NO: 1-NH2],"IL33 gene expression, fold change in treated cells with regard to basal control",−4.58 fold change
